Test results as given in US8105567B2, “Multidentate AZA ligands able to complex metal ions and the use thereof in diagnostics and therapy” (Bracco Imaging SpA, priority 2001, dated 2012).

Key:
[1] = system: PC-3 tumors; test: Biodistribution and tumor targeting of 177Lu complexes in the human PC-3 nude mouse model; assay type: in vivo; settings: 177Lu complex
Protocol: For biodistribution studies, the radiolabeled compounds were prepared as described above except that a 1:1 molar ratio of ligand to Lutetium was used to guarantee complete chelation of all starting ligand. […] The remaining solution was further diluted to the required radioconcentration using Bacteriostatic saline/ASCOR L500® Ascorbic Acid Injection USP mixed in a 9 to 1 [v/v]) ratio.
10-50 μCi of the HPLC purified compounds were administered to each mouse by i.v. tail vein injection, n=4 per group. At 1 h, 1 and 7 days post injection, the mice were terminated and the organs and tissues were harvested. Radioactivity was assayed in a gamma counter. The data was expressed as percentage of the total administered radioactivity (% ID) for the urine combined with the bladder, as well as for the blood pool; and percentage of the total administered radioactivity per gram (% ID/g) for all the other tested organs

[2] = Potentiometric measurements: protonation constants of the ligand; assay type: physicochemical; settings: 0.1 mol dm^−3 NMe4NO3, 298.1 K
Protocol: (§1) All the pH metric measurements (pH=−log [H^+]) were carried out in degassed 0.1 mol dm^−3 NMe4NO3 solutions, at 298.1 K, by using a Metrohm 670 Titroprocessor equipped with a Metrohm 6.0203.100 combined pH electrode. Prior to each potentiometric titration, the combined Metrohm electrode was calibrated as a hydrogen concentration probe by titrating known amounts of HCl with CO2-free NMe4OH solutions and determining the equivalent point by the Gran's method which allows to determine the standard potential E^o, and the ionic product of water. In the complexation experiments the metal ion concentration was about 80% of the ligand concentration. At least three measurements (about 100 data points each one) were performed for each system in the pH range 2.5-10.5 and the relevant e.m.f. data were treated by means of the computer programs […] and […] which furnished the protonation and the complexation constants.

[3] = Affinity for lactate ions (titration of 1 mM Gd(III) complex, ternary complex formation); assay type: physicochemical; settings: for KA (association constant) with lactate ions: titration with lactate ions
Protocol: (§2) A test, to further evaluate the lack of formation of ternary complexes was performed. As a non-limiting example, we measured the affinity of the compound of example 1 for lactate and phosphate ions. The determination was performed directly by adding increasing amounts of each anion to a 1 mM solution of the Gd(III) complex.
Conversely analogous titrations of Gd-DO3A and Gd-DO3MA (both endowed with q=2) with lactate ions yielded KA values of 150 M^−1 and 110 M^−1, respectively.

[4] = reference complex with two water molecules in the inner sphere; cited from earlier work
[5] = Potentiometric measurements: Gd complexation constant; assay type: physicochemical
Protocol: as §1

[6] = Relaxivity of the Gd(III) complex; assay type: physicochemical; settings: 25° C., pH 7 and 20 MHz
Protocol: The relaxivity determined at 25° C., pH 7 and 20 MHz for said complex is 7.1 mM^−1 s^−1.

[7] = Exchange time (tM) by transverse water 17O NMR relaxation time at variable temperature; assay type: physicochemical; settings: 298 K
From the text: The exchange time (tM) value of the Gd(III) complex of the example 1 has been assessed by measuring the transverse water ^17O NMR relaxation time at variable temperature according to the procedure described by Aime et al., in the above cited literature.
Obtained value turned out to be 90 ns at 298 K. Albeit the optimal value (about 30 ns) has not been attained, this exchange rate can be considered quite fast, especially if compared with that of (Gd-DO3A), the Gd(III) complex of reference, with two water molecules in the inner sphere, whose tM value is 160 ns.

[8] = NMRD profile fitting (molecular reorientational time); assay type: physicochemical; settings: calculated from fitting of the NMRD profile
[9] = Relaxivity as a function of the pH; assay type: physicochemical; settings: FIG. 3
From the text: The relaxivity of this complex was further tested as a function of the pH.

[10] = Affinity for phosphate ions (titration of 1 mM Gd(III) complex, ternary complex formation); assay type: physicochemical; settings: increasing amounts of anion added to 1 mM complex, FIG. 4
Protocol: as §2

With `CC1(N(CC(=O)O)CC(=O)O)CN(CC(=O)O)[C@@H]2CCCC[C@H]2N(CC(=O)O)C1` [Compound 94] the “clearance of Lu-177 from the body (in words)” value ([1]; PC-3 nude mouse) was “rapidly cleared from the body with little residual localization in any organs or tissue”, the “Blood 1 h % ID” value ([1]; i.v., 1 h post injection, blood) was 0.39 ± 0.29 % ID and the “Blood 24 h % ID” value ([1]; i.v., 24 h post injection, blood) was 0.01 ± 0.01 % ID. For the same compound, the “Blood 7 d % ID (*72 h timepoint)” value ([1]; i.v., 72 h timepoint, blood) was 0.00 ± 0.00 % ID.
With `CC1(N(CC(=O)O)CC(=O)O)CN(CC(=O)O)CCN(CC(=O)O)C1` [Example 1, 1,4-Bis(carboxymethyl)-6-[bis(carboxymethyl)amino]-6-methyl-perhydro-1,4-diazepine] the “Log KH” value ([2]; H2L + H = H3L) was 4.09 (3), the “Log KH” value ([2]; H3L + H = H4L) was 2.60 (3) and the “Log KH” value ([2]; H4L + H = H5L) was 1.44 (4). The “Log KH” value ([2]; H + L = HL) was 11.80 (2) and the “Log KH” value ([2]; HL + H = H2L) was 6.55 (2).
In the case of `O=C([O-])CN1CCNCCN(CC(=O)[O-])CCN(CC(=O)[O-])CC1.[Gd+3]` [Gd-DO3A, reference compound], the “KA (association constant) with lactate ions” value (“KA (association constant)” below) [3] is listed as 150 M⁻¹ and the “tM value (reference complex)” value [4] is listed as 160 ns.
For `CC(C(=O)[O-])N1CCNCCN(C(C)C(=O)[O-])CCN(C(C)C(=O)[O-])CC1.[Gd+3]` (stereo not drawn) [Gd-DO3MA, reference compound], the “KA (association constant)” value [3] was 110 M⁻¹.
With “Gd(III) Complex of 1,4-Bis(carboxymethylmethyl)-6-[bis(hydroxycarbonyl-methyl)amino]-6-methylperhydro-1,4-diazepine [Gd(III) complex of Example 1]” the LogKGd ([5]; M + L = ML, 0.1 mol dm^−3 NMe4NO3, 298.1 K) was 21.52 (1), the “LogKGd (conditional, pH 7.4)” value ([5]; conditional, pH 7.4) was “LogKGd (conditional, pH 7.4) = 17.06” and the relaxivity [6] was 7.1 mM⁻¹ s⁻¹. For the same compound, the “exchange time (tM)” value [7] was 90 ns, the “tR (molecular reorientational time)” value [8] was 80 ps and the “relaxation rate over the investigated pH range” value [9] was “substantially constant”. For the same compound, the “interaction with lactate ions” value ([3]; increasing amounts of anion added to 1 mM complex, FIG. 4) was “complete absence of interaction”, the “KA (association constant)” value [3] was “does not show any measurable association constant” and the “interaction with phosphate ions” value [10] was “complete absence of interaction”.
